Consider six compounds from paper PMC11600199 (JACS Au, 2024).

For data set [1] the following is noted: human liver microsomes. Background: Microsomes from liver hold many membrane-bound enzymes, among them those of drug oxidation.
Data set [2] is described as follows: Kinetic solubility in phosphate-buffered saline pH 7.4. Conditions: 25 °C, pH 7.4, aqueous buffer, kinetic from dmso stock.
A short description of data set [3]: Experimental pKa. The note with it: amine hydrochlorides. The data set is classed as physicochemical.
Data set [4] is described as follows: Chemical stability in aqueous 1 M HCl or 1 M NaOH and on shelf storage. The note with it: aqueous 1 M hydrochloric acid or aqueous 1 M sodium hydroxide, room temperature, 1 day. The data set is classed as physicochemical.

The term solubility (kinetic) denotes the concentration staying in solution when a stock, usually in DMSO, is diluted into the medium.

Values after ≈ are worked out from the molar mass of the structure shown.

In turn, `CN(Cc1ccc(C(C)(C)C)cc1)Cc1cccc2ccccc12` [Butenafine] registered a CLint in data set [1] of 30 mg min^–1 μL^–1. In addition, the solubility (kinetic) at 2 h in data set [2] amounted to 10 µM (≈ 3.17 µg/mL).

As to `CCc1cc(C)cc(CC)c1-c1c(OC(=O)C(C)(C)C)n2n(c1=O)CCOCC2` [Pinoxaden], the solubility (kinetic) at 2 h in data set [2] came to 358 µM (≈ 143 µg/mL).

As to `CC(C)N(Cc1ccccc1)C(=O)C(C)(C)C` [Tebutam], in data set [1], the CLint was found to be 57 mg min^–1 μL^–1. For the same compound, the solubility (kinetic) at 2 h in data set [2] came out at 324 µM (≈ 75.6 µg/mL).

On to `CC(C)(C)C(=O)NNCc1ccccc1` [Pivhydrazine], for which the solubility (kinetic) at 2 h in data set [2] was no less than 400 µM.

Take `CC(C)(C)N.Cl` [tert-butyl amine hydrochloride]: the “pKa (exp.)” value in data set [3] worked out at 10.69.

`FC(F)(F)C1(c2cccnc2)CCC1` [12a]: in data set [4], the “decomposition on treatment with acid or base” value is “did not lead to any decomposition”.
